Columns and labels:
[1] = test system: IP-Implanted L1210/Cisplatin; experiment: Comparison of isomers: long term survivors and weight differences in treating IP-implanted L1210/Cisplatin (Table 6); type: in vivo, mice
From the text: Comparative data for the others are as follows: 27 for trans d, 27 for trans d l and 13 for cis. […] The higher the ratio the more convenient it is to prepare a formulation for intravenous administration to patients which is shown in Table 7.

[2] = Comparative water solubilities of platinum complexes (Table 7)
[3] = test system: bacteriophage lambda (lambda-lac Z fusion prophage); experiment: Biochemical phage induction assay (BIA), induction of bacteriophage lambda (FIG. 1); type: cell-based, E. coli (BR 513)
Experimental: The platinum complexes are tested using the BIA quantitative tube assay for dose-dependent induction of bacteriophage lambda according to a previously published procedure of Sarma, D. et al. Chem. Biol. Interactions, 46: 219-232 (1983), which is incorporated herein by reference. A permeable strain of E. coli (BR 513) containing lambda phage is used to test all samples. Expression time for the assay is 5 hours at 38° C. Fresh dilutions of test samples are made in saline (0.85%) on the day of the experiment. Samples are made at 10×final concentration and dispensed according to assay procedure. Final concentrations are 300 μg/ml, 200 μg/ml, 100 μg/ml, 60 μg/ml, 25 μg/ml, 10 μg/ml and a zero control.
This strain of bacteria contains a chromosomally integrated lambda-lac Z fusion phage under control of the lambda repressor. Treatment with DNA-damaging agents leads to derepression of prophage and synthesis of β-galacto-sidase, product of the lac Z gene. β-galactosidase is detected by reaction with a substrate (O-nitrophenyl-D-galactopyranoside (ONPG)) to give a yellow-colored product. Tubes are incubated at 28° C. (a few minutes to several hours to an A420 ≈0.5-1.0). Color development is stopped by the addition of base (1M Na2 CO3), and the yellow color is measured by absorbance at 420 nm. The exact time required for color development is recorded. Enzyme Units=100 A420 /thr where A420 =absorbance at 420 nm; thr =time required to develop yellow color in hours. One enzyme unit is the approximate value of an uninduced control tube at zero time.
This assay detects a wide variety of compounds which interact with DNA. […] This finding may support the hypothesis that platinum IV complexes are chemically less reactive. However, in vivo there is evidence that platinum IV complexes may be reduced to platinum (II) complexes [Pendyala, L. Proceedings 13th International Cancer Congress, Seatle, Wash., #3034, page 531, (1982)]. […] It is noted that the four isomers are not equal in their ability to induce the prophage.

[4] = Solubility of platinum complexes (Table I and preparation examples); type: physicochemical

Molecule	Ratio of 2/1 (weight difference / long-term survivors) [1]	Total Grams of Weight Difference [1] [Grams]	Total number of long-term survivors [1]	Water Solubility ([2]; Table 7)	Water Solubility mg/L / Mouse Optimal Dose (mg/kg) ([2]; ratio of water solubility to mouse optimal dose)	Effectiveness in inducing prophage [3]	Solubility in DMF ([4]; DMF) [mg/mL]	Solubility in methanol ([4]; methanol) [mg/mL]	Solubility in methanol-acetone ([4]; methanol-acetone (1:1)) [mg/mL]	Solubility in water ([4]; water) [mg/mL]	Prophage induction, enzyme units [3]	Concentration of optimal effect in prophage induction [3] [µg/mL]
Tetrachloro-cis-1,2-cyclohexanediamine platinum (IV)	1.40	-5.6	4	2,000 mg/L	250 mg/L / (mg/kg)	practically inert	250	50	200	< 10	–	–
[Cl][Pt]1([Cl])([Cl])([Cl])[NH]C2CCCCC2[NH]1 (stereo not drawn) [trans (d, l), (d,l)-Tetrachloro-trans-1,2-cyclohexanediamine platinum (IV)]	–	-10.0	12	–	–	intermediate in effectiveness	–	–	–	–	about 68 enzyme units	–
[Cl][Pt-2]1([Cl])([Cl])([Cl])[NH2+][C@@H]2CCCC[C@H]2[NH2+]1 [trans (l), (1R,2R)-Tetrachloro-trans-1,2-cyclohexanediammine platinum (IV)]	–	-6.0	17	–	–	most effective inducers among the four	–	–	–	–	about 104 enzyme units	50
[Cl][Pt-2]1([Cl])([Cl])([Cl])[NH2+][C@H]2CCCC[C@@H]2[NH2+]1 [trans (d), (1S, 2S)-Tetrachloro-trans-1,2-cyclohexanediamine platinum (IV)]	–	-11.9	11	–	–	most effective inducers among the four	–	–	–	–	about 104 enzyme units	25
